One assay concerns SKBR3 cells. As to the kind of experiment: SKBR3 Cell Viability Assay (CellTiter Glo). Type of assay: cell-based. Conditions: Homo sapiens, SK-BR-3, 72 h, CellTiter Glo luminescence, read-out: MCL-1 CV SKBR3 EC50. The essentials:
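SKBR3 cells (6,000/well) in McCoy 5A + 10% FBS exposed to serially diluted compound for 72 h at 37° C., 5% CO2. Viability by CellTiter Glo luminescence; % inhibition normalized to DMSO (negative) and 10 μM puromycin (positive).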
In general terms: ATP-based viability assays read luminescence as a measure of living cells.

In assay [1] the target is MCL-1/Bim interaction (recombinant human MCL-1 protein, residues 171-327; biotinylated human Bim peptide, residues 51-76) (Homo sapiens (Human), UniProt Q07820). Briefly: MCL-1/Bim Binding AlphaLISA Assay. To be noted: 0.0625 nM 6xHis-Mcl-1 (171-327), 0.0625 nM biotinylated-Bim peptide. In outline:
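AlphaLISA with 0.0625 nM His-tagged MCL-1 and 0.0625 nM biotin-Bim peptide in 20 mM Hepes pH 7.5, 150 mM NaCl, 0.002% Brij 35, 1 mM DTT, 0.01% BSA. Compound preincubated 1 h with MCL-1, Bim added for 2 h, then acceptor and donor beads 1 h each.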
Background: Bead proximity is the source of the signal in Alpha formats.

Molecules are shown by their SMILES. pEC50, pIC50: −log10 of the molar value.

Sequence of MCL-1/Bim interaction (recombinant human MCL-1 protein, residues 171-327; biotinylated human Bim peptide, residues 51-76) (Q07820 171-327): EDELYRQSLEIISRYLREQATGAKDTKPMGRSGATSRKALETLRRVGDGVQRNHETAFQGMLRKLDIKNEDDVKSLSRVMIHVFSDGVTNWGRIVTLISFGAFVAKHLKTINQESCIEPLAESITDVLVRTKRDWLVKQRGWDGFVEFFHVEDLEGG

The pEC50 is the negative decadic logarithm of the EC50, by convention in mol/L. In general, pIC50 refers to the IC50 on a negative log10 scale, so that one unit is a factor of ten. On to `CO[C@H]1/C=C/C[C@H](C)C[S@@](=O)(NC(=O)c2cc3n(n2)CCOC3)=NC(=O)c2ccc3c(c2)N(C[C@@H]2CC[C@H]21)C[C@@]1(CCCc2cc(Cl)ccc21)CO3` [Example 424], for which the pEC50 in the assay on SKBR3 cells is 6.83. The pIC50 in assay [1] is 10.43.
Turning to `CO[C@H]1/C=C/C[C@H](C)C[S@@](=O)(NC(=O)C2CC2c2cnn(C)c2)=NC(=O)c2ccc3c(c2)N(C[C@@H]2CC[C@H]21)C[C@@]1(CCCc2cc(Cl)ccc21)CO3` (some centres unmarked) [Example 425], in the assay with SKBR3 cells, the pEC50 is 6.77. For the same molecule, in assay [1], the pIC50 was 10.11.
`CO[C@H]1/C=C/C[C@H](C)C[S@@](=O)(NC(=O)[C@H]2C[C@@H]2c2cccnc2)=NC(=O)c2ccc3c(c2)N(C[C@@H]2CC[C@H]21)C[C@@]1(CCCc2cc(Cl)ccc21)CO3` [Example 426]: the pEC50 in the assay with SKBR3 cells was 6.50. Further, the pIC50 in assay [1] was 10.04.
On to `CO[C@H]1/C=C/C[C@H](C)C[S@@](=O)(NC(=O)[C@H]2CCOC2)=NC(=O)c2ccc3c(c2)N(C[C@@H]2CC[C@H]21)C[C@@]1(CCCc2cc(Cl)ccc21)CO3` [Example 427], for which the pEC50 with SKBR3 cells was 6.48. Further, in assay [1], the negative logarithm of the IC50 (pIC50) was 9.98.
Turning to `CO[C@H]1/C=C/C[C@H](C)C[S@@](=O)(NC(=O)NC2COC2)=NC(=O)c2ccc3c(c2)N(C[C@@H]2CC[C@H]21)C[C@@]1(CCCc2cc(Cl)ccc21)CO3` [Example 428], the pEC50 in the assay with SKBR3 cells is 6.78. Further, the negative-log IC50 (pIC50) in assay [1] is 10.16.
Consider `CO[C@H]1/C=C/C[C@H](C)C[S@@](=O)(NC(=O)c2cc3c(s2)CCOC3)=NC(=O)c2ccc3c(c2)N(C[C@@H]2CC[C@H]21)C[C@@]1(CCCc2cc(Cl)ccc21)CO3` [Example 429], for which, in the assay on SKBR3 cells, the pEC50 is 6.58. The pIC50 in assay [1] is 9.89.
As to `CO[C@H]1/C=C/C[C@H](C)C[S@@](=O)(NC(=O)c2ccc3c(c2)CCOC3)=NC(=O)c2ccc3c(c2)N(C[C@@H]2CC[C@H]21)C[C@@]1(CCCc2cc(Cl)ccc21)CO3` [Example 430], the pEC50 in the assay with SKBR3 cells was 6.86. Besides, in assay [1], the pIC50 was 9.77.
With `CO[C@H]1/C=C/C[C@H](C)C[S@@](=O)(NC(=O)c2ccc3ncnn3c2)=NC(=O)c2ccc3c(c2)N(C[C@@H]2CC[C@H]21)C[C@@]1(CCCc2cc(Cl)ccc21)CO3` [Example 432], the pEC50 in the assay on SKBR3 cells was 6.77. Moreover, in assay [1], the pIC50 was 10.15.
With `CO[C@H]1/C=C/C[C@H](C)C[S@@](=O)(NC(=O)N[C@@H]2C[C@H]2C)=NC(=O)c2ccc3c(c2)N(C[C@@H]2CC[C@H]21)C[C@@]1(CCCc2cc(Cl)ccc21)CO3` [Example 433], the negative logarithm of the EC50 (pEC50) in the assay on SKBR3 cells is 6.40. Besides, the pIC50 in assay [1] is 9.88.
Take `CO[C@H]1/C=C/C[C@H](C)C[S@@](=O)(NC(=O)c2cc(C)cs2)=NC(=O)c2ccc3c(c2)N(C[C@@H]2CC[C@H]21)C[C@@]1(CCCc2cc(Cl)ccc21)CO3` [Example 434]: in the assay on SKBR3 cells, the negative-log EC50 (pEC50) was 6.39. Besides, the pIC50 in assay [1] is 9.35.
In the same order, the values of `CO[C@H]1/C=C/C[C@H](C)C[S@@](=O)(NC(=O)C2CC3(CCOCC3)C2)=NC(=O)c2ccc3c(c2)N(C[C@@H]2CC[C@H]21)C[C@@]1(CCCc2cc(Cl)ccc21)CO3` [Example 435] are 6.78 and 9.94.
Consider `CO[C@H]1/C=C/C[C@H](C)C[S@@](=O)(NC(=O)C2CC3(CCC3)C2)=NC(=O)c2ccc3c(c2)N(C[C@@H]2CC[C@H]21)C[C@@]1(CCCc2cc(Cl)ccc21)CO3` [Example 436], for which the pEC50 in the assay on SKBR3 cells is 6.12. Besides, the pIC50 in assay [1] is 9.05.
Turning to `CO[C@H]1/C=C/C[C@H](C)C[S@@](=O)(NC(=O)NC2CC3(C2)CC(F)(F)C3)=NC(=O)c2ccc3c(c2)N(C[C@@H]2CC[C@H]21)C[C@@]1(CCCc2cc(Cl)ccc21)CO3` [Example 437], the pEC50 with SKBR3 cells was 6.91. Besides, in assay [1], the pIC50 is 9.52.
Regarding `COC(=O)N1CC[C@@H](C(=O)N[S@@]2(=O)=NC(=O)c3ccc4c(c3)N(C[C@@H]3CC[C@H]3[C@@H](OC)/C=C/C[C@H](C)C2)C[C@@]2(CCCc3cc(Cl)ccc32)CO4)C1` [Example 438], in the assay with SKBR3 cells, the pEC50 is 6.56. For the same molecule, the pIC50 in assay [1] is 9.73.
Turning to `COC(=O)N1CC[C@H](C(=O)N[S@@]2(=O)=NC(=O)c3ccc4c(c3)N(C[C@@H]3CC[C@H]3[C@@H](OC)/C=C/C[C@H](C)C2)C[C@@]2(CCCc3cc(Cl)ccc32)CO4)C1` [Example 439], the pEC50 in the assay on SKBR3 cells is 6.10. In addition, in assay [1], the pIC50 is 9.86.
Regarding `CO[C@H]1/C=C/C[C@H](C)C[S@@](=O)(NC(=O)N[C@@H]2CC2(F)F)=NC(=O)c2ccc3c(c2)N(C[C@@H]2CC[C@H]21)C[C@@]1(CCCc2cc(Cl)ccc21)CO3` [Example 440], in the assay on SKBR3 cells, the pEC50 is 6.55. For the same molecule, the pIC50 in assay [1] was 10.29.
`CO[C@H]1/C=C/C[C@H](C)C[S@@](=O)(NC(=O)Nc2ccccn2)=NC(=O)c2ccc3c(c2)N(C[C@@H]2CC[C@H]21)C[C@@]1(CCCc2cc(Cl)ccc21)CO3` [Example 441]: the pEC50 in the assay on SKBR3 cells was 6.43. In assay [1], the pIC50 was 9.65.
For `CO[C@H]1/C=C/C[C@H](C)C[S@@](=O)(NC(=O)NC2CCOCC2)=NC(=O)c2ccc3c(c2)N(C[C@@H]2CC[C@H]21)C[C@@]1(CCCc2cc(Cl)ccc21)CO3` [Example 442], the pEC50 in the assay with SKBR3 cells is 6.91. Moreover, in assay [1], the pIC50 is 9.87.
Regarding `CO[C@H]1/C=C/C[C@H](C)C[S@@](=O)(NC(=O)Nc2ccnc(C)c2)=NC(=O)c2ccc3c(c2)N(C[C@@H]2CC[C@H]21)C[C@@]1(CCCc2cc(Cl)ccc21)CO3` [Example 443], in the assay with SKBR3 cells, the pEC50 was 6.79. Also, the pIC50 in assay [1] was 9.73.
In the same order, the values of `CO[C@H]1/C=C/C[C@H](C)C[S@@](=O)(NC(=O)c2cc(C)sn2)=NC(=O)c2ccc3c(c2)N(C[C@@H]2CC[C@H]21)C[C@@]1(CCCc2cc(Cl)ccc21)CO3` [Example 444] are 6.77 and 10.00.
In the same order, the values of `CO[C@H]1/C=C/C[C@H](C)C[S@@](=O)(NC(=O)COC2CC2)=NC(=O)c2ccc3c(c2)N(C[C@@H]2CC[C@H]21)C[C@@]1(CCCc2cc(Cl)ccc21)CO3` [Example 445] are 6.68 and 10.04.
As to `CO[C@H]1/C=C/C[C@H](C)C[S@@](=O)(NC(=O)[C@@]23COCC2C3)=NC(=O)c2ccc3c(c2)N(C[C@@H]2CC[C@H]21)C[C@@]1(CCCc2cc(Cl)ccc21)CO3` (some centres unmarked) [Example 446], the pEC50 with SKBR3 cells is 6.76. Besides, the pIC50 in assay [1] is 9.83.
Turning to `CO[C@H]1/C=C/C[C@H](C)C[S@@](=O)(NC(=O)[C@]23COCC2C3)=NC(=O)c2ccc3c(c2)N(C[C@@H]2CC[C@H]21)C[C@@]1(CCCc2cc(Cl)ccc21)CO3` (some centres unmarked) [Example 447], the pEC50 in the assay with SKBR3 cells is 6.79. Besides, in assay [1], the pIC50 is 9.88.
Take `CO[C@H]1/C=C/C[C@H](C)C[S@@](=O)(NC(=O)c2cn(C)nc2C(F)F)=NC(=O)c2ccc3c(c2)N(C[C@@H]2CC[C@H]21)C[C@@]1(CCCc2cc(Cl)ccc21)CO3` [Example 448]: in the assay on SKBR3 cells, the pEC50 is 6.60. In assay [1], the pIC50 was 9.93.
As to `CO[C@H]1/C=C/C[C@H](C)C[S@@](=O)(NC(=O)N[C@@H]2[C@@H]3COC[C@@H]32)=NC(=O)c2ccc3c(c2)N(C[C@@H]2CC[C@H]21)C[C@@]1(CCCc2cc(Cl)ccc21)CO3` [Example 449], the pEC50 in the assay on SKBR3 cells was 6.83. Also, the pIC50 in assay [1] was 9.88.
With `CO[C@H]1/C=C/C[C@H](C)C[S@@](=O)(NC(=O)c2cn(C)c3nccnc23)=NC(=O)c2ccc3c(c2)N(C[C@@H]2CC[C@H]21)C[C@@]1(CCCc2cc(Cl)ccc21)CO3` [Example 450], the pEC50 with SKBR3 cells was 6.78. Besides, in assay [1], the pIC50 is 9.63.
As for `COc1c(C(=O)N[S@@]2(=O)=NC(=O)c3ccc4c(c3)N(C[C@@H]3CC[C@H]3[C@@H](OC)/C=C/C[C@H](C)C2)C[C@@]2(CCCc3cc(Cl)ccc32)CO4)cn2c1C[C@H](OC)C2` [Example 451], the pEC50 in the assay with SKBR3 cells is 6.79. Further, the pIC50 in assay [1] was 9.28.
For `CO[C@H]1/C=C/C[C@H](C)C[S@@](=O)(NC(=O)N[C@H]2C[C@H](O)C2)=NC(=O)c2ccc3c(c2)N(C[C@@H]2CC[C@H]21)C[C@@]1(CCCc2cc(Cl)ccc21)CO3` [Example 452], the negative-log EC50 (pEC50) in the assay with SKBR3 cells was 6.55. In addition, in assay [1], the pIC50 was 10.35.
In the case of `CO[C@H]1/C=C/C[C@H](C)C[S@@](=O)(NC(=O)N[C@H]2C[C@@](O)(C(F)(F)F)C2)=NC(=O)c2ccc3c(c2)N(C[C@@H]2CC[C@H]21)C[C@@]1(CCCc2cc(Cl)ccc21)CO3` [Example 453], in the assay with SKBR3 cells, the pEC50 is 7.01. In addition, the negative-log IC50 (pIC50) in assay [1] is 10.04.
On to `CNC(=O)N[S@@]1(=O)=NC(=O)c2ccc3c(c2)N(C[C@@H]2CC[C@H]2[C@@H](OC)/C=C/C[C@H](C)C1)C[C@@]1(CCCc2cc(Cl)ccc21)CO3` [Example 454], for which the pEC50 with SKBR3 cells is 6.84. In assay [1], the pIC50 is 10.01.
Turning to `CO[C@H]1/C=C/C[C@H](C)C[S@@](=O)(NC(=O)c2cc3n(c2)CCN(S(C)(=O)=O)C3)=NC(=O)c2ccc3c(c2)N(C[C@@H]2CC[C@H]21)C[C@@]1(CCCc2cc(Cl)ccc21)CO3` [Example 455], in the assay on SKBR3 cells, the pEC50 is 6.84. For the same molecule, the pIC50 in assay [1] is 9.83.
In the same order, the values of `CO[C@H]1/C=C/C[C@H](C)C[S@@](=O)(NC(=O)N2CC3(CCOC3)C2)=NC(=O)c2ccc3c(c2)N(C[C@@H]2CC[C@H]21)C[C@@]1(CCCc2cc(Cl)ccc21)CO3` [Example 456] are 6.76 and 10.00.
Take `CO[C@H]1/C=C/C[C@H](C)C[S@@](=O)(NC(=O)N2CCn3cccc3C2)=NC(=O)c2ccc3c(c2)N(C[C@@H]2CC[C@H]21)C[C@@]1(CCCc2cc(Cl)ccc21)CO3` [Example 457]: the pEC50 with SKBR3 cells was 6.41. Moreover, in assay [1], the pIC50 is 10.07.
In the same order, the values of `COc1nnccc1C(=O)N[S@@]1(=O)=NC(=O)c2ccc3c(c2)N(C[C@@H]2CC[C@H]2[C@@H](OC)/C=C/C[C@H](C)C1)C[C@@]1(CCCc2cc(Cl)ccc21)CO3` [Example 458] are 6.42 and 10.10.

(Values after patent US10703733B2, “MCL-1 inhibitors” (Gilead Sciences, Inc., priority 2018, dated 2020).)
